We go through 24 molecules from patent US20080318943A1, “Compounds and Uses Thereof - 848” (ASTRAZENECA AB, priority 2007, published 2008).

Assay [1] deals with T1, GABAA2 receptors (α2, β3, γ2 receptor subunits transfected into Sf9 cells) (Homo sapiens, UniProt P18507+P47869).
T1 construct: host or cells: Sf9 cells (membranes)
Nature of the assay: GABAA2 Binding Method ([3H]-Flunitrazepam displacement). The settings on record: [3H]-Flunitrazepam ~2 nM, α2β3γ2 Sf9 membranes, 1 hr at 4° C. The essentials: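 Membranes from Sf9 cells expressing α2β3γ2 GABAA receptors incubated with ~2 nM (final) [3H]-flunitrazepam and test compound 1 h at 4 °C, then filtered on GF/B plates with cold-buffer washes. Flumazenil-defined controls; percent of control, IC50 and Ki calculated.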

Assay [2] addresses T2, GABAA receptor α2β3γ2 (Homo sapiens, UniProt P18507+P47869).
T2 construct: expressed in transfected cells; host or cells: Xenopus laevis oocytes injected with cRNA
Nature of the assay: Two-electrode voltage-clamp potentiation of GABA EC10 current in Xenopus oocytes, GABAA2. The class given is cell-based. To be noted: percentage potentiation of GABA EC10 current divided by that of diazepam. In short, it runs like this: (§1)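 Human GABAA receptors expressed in Xenopus oocytes by cRNA injection (α:β:γ molar ratio ~1:1:10 for α1β2γ2, 1:1:1 for α2β3γ2), recorded 2-10 days later by two-electrode voltage clamp at −60 mV in ND-96, pH 7.5. Modulator preapplied 30 s before GABA at per-oocyte EC10. Peak-current percent potentiation over GABA alone, normalised to diazepam.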
Background: Two-electrode voltage clamp is typically applied to oocytes expressing channels or transporters.

The target of assay [3] is T3, GABAA receptor α1β2γ2 (Homo sapiens, UniProt P14867+P18507).
T3 construct: expressed in transfected cells; host or cells: Xenopus laevis oocytes injected with cRNA
T3 sequence (P14867 28-456): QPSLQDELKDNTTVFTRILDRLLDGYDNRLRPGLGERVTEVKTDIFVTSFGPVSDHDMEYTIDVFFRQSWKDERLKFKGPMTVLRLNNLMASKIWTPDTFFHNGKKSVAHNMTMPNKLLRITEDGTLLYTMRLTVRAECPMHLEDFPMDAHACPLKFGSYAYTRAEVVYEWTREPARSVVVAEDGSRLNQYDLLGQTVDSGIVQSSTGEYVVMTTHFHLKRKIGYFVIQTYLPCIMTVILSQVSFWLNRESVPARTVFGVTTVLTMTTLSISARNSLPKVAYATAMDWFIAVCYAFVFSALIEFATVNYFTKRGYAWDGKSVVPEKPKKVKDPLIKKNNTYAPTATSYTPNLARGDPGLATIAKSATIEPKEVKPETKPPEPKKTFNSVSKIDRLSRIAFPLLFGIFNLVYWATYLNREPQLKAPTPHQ
T3 sequence (P47870 25-512 partner limits assumed): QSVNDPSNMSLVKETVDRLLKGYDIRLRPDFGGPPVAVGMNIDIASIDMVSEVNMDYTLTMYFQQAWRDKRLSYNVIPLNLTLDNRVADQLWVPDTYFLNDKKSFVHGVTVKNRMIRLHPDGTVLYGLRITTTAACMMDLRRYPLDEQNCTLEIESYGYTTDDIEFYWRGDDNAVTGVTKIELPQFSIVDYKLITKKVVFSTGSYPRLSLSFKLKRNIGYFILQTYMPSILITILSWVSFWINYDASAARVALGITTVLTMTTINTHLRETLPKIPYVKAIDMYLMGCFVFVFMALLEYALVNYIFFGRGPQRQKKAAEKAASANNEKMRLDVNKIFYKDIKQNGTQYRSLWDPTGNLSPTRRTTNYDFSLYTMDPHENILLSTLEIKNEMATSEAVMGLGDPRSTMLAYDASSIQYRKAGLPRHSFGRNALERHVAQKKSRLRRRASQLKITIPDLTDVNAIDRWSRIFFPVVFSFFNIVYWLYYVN
T3 sequence (P18507 40-475): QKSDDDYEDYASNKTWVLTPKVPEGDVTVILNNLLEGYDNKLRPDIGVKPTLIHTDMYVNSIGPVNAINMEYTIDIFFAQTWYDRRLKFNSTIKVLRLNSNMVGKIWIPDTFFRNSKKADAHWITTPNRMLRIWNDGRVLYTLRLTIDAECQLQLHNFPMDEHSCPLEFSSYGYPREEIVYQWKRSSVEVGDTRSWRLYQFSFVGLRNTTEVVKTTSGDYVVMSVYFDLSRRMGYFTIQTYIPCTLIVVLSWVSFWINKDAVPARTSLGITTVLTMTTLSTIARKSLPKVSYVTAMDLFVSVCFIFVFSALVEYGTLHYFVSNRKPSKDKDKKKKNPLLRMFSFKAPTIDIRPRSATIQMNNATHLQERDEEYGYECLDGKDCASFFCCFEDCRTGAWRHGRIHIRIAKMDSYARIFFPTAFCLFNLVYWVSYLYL
Kind of assay: Two-electrode voltage-clamp potentiation of GABA EC10 current in Xenopus oocytes, GABAA1. Format: cell-based. The settings on record: percentage potentiation of GABA EC10 current divided by that of diazepam. In short, it runs like this:
as §1

The mark [4] stands for this setting: listed as 9-amino-2-cyclobutyl-5-(2-fluoro-6-methoxyphenyl)-2,3-dihydro-1H-pyrrolo[3,4-b]q.

Each structure is given as a SMILES string.

T2 sequence (P47869 29-451): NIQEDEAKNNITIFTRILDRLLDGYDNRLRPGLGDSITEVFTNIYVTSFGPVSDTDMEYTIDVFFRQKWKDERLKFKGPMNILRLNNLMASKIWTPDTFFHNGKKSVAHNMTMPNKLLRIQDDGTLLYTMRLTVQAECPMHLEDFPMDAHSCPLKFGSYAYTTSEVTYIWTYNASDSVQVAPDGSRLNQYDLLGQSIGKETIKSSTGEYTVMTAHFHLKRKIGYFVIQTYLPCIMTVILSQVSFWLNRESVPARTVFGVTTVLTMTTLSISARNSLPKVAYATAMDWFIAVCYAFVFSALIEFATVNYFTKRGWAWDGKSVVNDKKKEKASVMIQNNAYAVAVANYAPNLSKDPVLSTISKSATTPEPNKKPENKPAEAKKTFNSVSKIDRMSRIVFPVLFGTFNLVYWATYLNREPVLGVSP
T2 sequence (P28472 26-473 partner): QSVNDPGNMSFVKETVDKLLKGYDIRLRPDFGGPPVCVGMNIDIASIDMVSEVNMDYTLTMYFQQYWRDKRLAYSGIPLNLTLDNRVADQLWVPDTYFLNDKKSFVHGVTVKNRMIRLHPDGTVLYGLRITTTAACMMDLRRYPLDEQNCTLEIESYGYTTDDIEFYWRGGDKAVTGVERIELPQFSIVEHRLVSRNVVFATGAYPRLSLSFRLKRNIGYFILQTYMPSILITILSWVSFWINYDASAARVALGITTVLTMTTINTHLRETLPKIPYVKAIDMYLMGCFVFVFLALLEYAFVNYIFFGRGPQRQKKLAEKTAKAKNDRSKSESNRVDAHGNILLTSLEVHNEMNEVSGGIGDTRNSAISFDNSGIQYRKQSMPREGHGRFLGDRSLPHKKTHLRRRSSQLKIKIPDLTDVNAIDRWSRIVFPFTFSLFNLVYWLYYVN
T2 sequence (P18507 40-475): as the sequence (P18507 40-475) above
T1 sequence (P47869 29-451): as the sequence (P47869 29-451) above
T1 sequence (P28472 26-473 partner): as the sequence (P28472 26-473 partner) above
T1 sequence (P18507 40-475): as the sequence (P18507 40-475) above

Usually Ki stands for a dissociation constant, usually derived from enzyme kinetics or from competition with a known ligand. For `CCCN1Cc2nc3c(-c4cnc(OC)cc4C)cccc3c(N)c2C1=O` [Example 12, 9-Amino-5-(6-methoxy-4-methylpyridin-3-yl)-2-propyl-2,3-dihydropyrrolo[3,4-b]quinolin-1-one], the Ki in assay [1] was found to be 50.6 nM. In assay [2], the “Relative Potentiation for GABAA2” value was found to be 0.23. Moreover, in assay [3], the “Relative Potentiation for GABAA1” value is reported as 0.17.
In assay [1], `CCCN1Cc2nc3c(-c4cccnc4F)cccc3c(N)c2C1=O` [Example 13, 9-Amino-5-(2-fluoropyridin-3-yl)-2-propyl-2,3-dihydropyrrolo[3,4-b]quinolin-1-one] displayed a Ki of 26.7 nM. In addition, the “Relative Potentiation for GABAA2” value in assay [2] was 0.37. The “Relative Potentiation for GABAA1” value in assay [3] is 0.21.
`COc1ccc(C)cc1-c1cccc2c(N)c3c(nc12)CN(Cc1ccc2c(c1)OCO2)C3=O` [Example 14, 9-Amino-2-benzo[1,3]dioxol-5-ylmethyl-5-(2-methoxy-5-methylphenyl)-2,3-dihydropyrrolo[3,4-b]quinolin-1-one] displayed a Ki in assay [1] of 15.5 nM. The “Relative Potentiation for GABAA2” value in assay [2] stood at 0.37. In addition, in assay [3], the “Relative Potentiation for GABAA1” value was 0.22.
`CCCN1Cc2nc3c(-c4ccc(C)nc4Cl)cccc3c(N)c2C1=O` [Example 15, 9-Amino-5-(2-chloro-6-methylpyridin-3-yl)-2-propyl-2,3-dihydropyrrolo[3,4-b]quinolin-1-one] returned a Ki in assay [1] of 7.06 nM. In assay [2], the “Relative Potentiation for GABAA2” value is reported as 0.87. The “Relative Potentiation for GABAA1” value in assay [3] is 0.29.
With `CCN1Cc2nc3c(-c4c(F)cccc4OC)cccc3c(N)c2C1=O` [Example 17, 9-Amino-2-ethyl-5-(2-fluoro-6-methoxyphenyl)-2,3-dihydropyrrolo[3,4-b]quinolin-1-one], the Ki in assay [1] was 4.36 nM. The “Relative Potentiation for GABAA2” value in assay [2] worked out at 0.15. Besides, the “Relative Potentiation for GABAA1” value in assay [3] was −0.11.
As to `COc1cccc(F)c1-c1cccc2c(N)c3c(nc12)CN(C1CCC1)C3=O` [Example 18, 9-Amino-2-cyclobutyl-5-(2-fluoro-6-methoxyphenyl)-2,3-dihydropyrrolo[3,4-b]quinolin-1-one], in assay [1], the affinity corresponds to a Ki of 1.62 nM. The “Relative Potentiation for GABAA2” value in assay [2] (setting [4]) worked out at 0.2. The “Relative Potentiation for GABAA1” value in assay [3] (setting [4]) was −0.07.
Molecule `CCN1Cc2nc3c(-c4cccnc4OC)cccc3c(N)c2C1=O` [Example 19, 9-Amino-2-ethyl-5-(2-methoxypyridin-3-yl)-2,3-dihydropyrrolo[3,4-b]quinolin-1-one] had a Ki in assay [1] of 24.2 nM. In addition, the “Relative Potentiation for GABAA2” value in assay [2] is given as 0.28. Also, in assay [3], the “Relative Potentiation for GABAA1” value was determined as 0.022.
The molecule `COc1cccc(F)c1-c1cccc2c(N)c3c(nc12)CN(C)C3=O` [Example 20, 9-Amino-5-(2-fluoro-6-methoxyphenyl)-2-methyl-2,3-dihydropyrrolo[3,4-b]quinolin-1-one] yielded a Ki in assay [1] of 18.8 nM. In addition, the “Relative Potentiation for GABAA2” value in assay [2] was 0.26. Besides, the “Relative Potentiation for GABAA1” value in assay [3] was 0.046.
In the case of `COc1cccc(-c2cccc3c(N)c4c(nc23)CN(C2CC2)C4=O)c1F` [Example 22, 9-Amino-2-cyclopropyl-5-(2-fluoro-3-methoxyphenyl)-2,3-dihydropyrrolo[3,4-b]quinolin-1-one], the Ki in assay [1] is 18.2 nM. The “Relative Potentiation for GABAA2” value in assay [2] was 0.14. For the same molecule, in assay [3], the “Relative Potentiation for GABAA1” value came out at 0.07.
The corresponding values for `COc1ccc(CN2Cc3nc4c(-c5ccc(C)nc5Cl)cccc4c(N)c3C2=O)cc1OC` [Example 23, 9-Amino-5-(2-chloro-6-methylpyridin-3-yl)-2-(3,4-dimethoxybenzyl)-2,3-dihydropyrrolo[3,4-b]quinolin-1-one] are 4.36 nM, 0.34 and 0.11.
For `CCCN1Cc2nc3c(-c4ccc(OC)nc4OC)c(F)ccc3c(N)c2C1=O` [Example 24, 9-Amino-5-(2,6-dimethoxypyridin-3-yl)-6-fluoro-2-propyl-2,3-dihydropyrrolo[3,4-b]quinolin-1-one], the Ki in assay [1] turned out to be 2.94 nM. For the same molecule, the “Relative Potentiation for GABAA2” value in assay [2] is reported as 0.35. The “Relative Potentiation for GABAA1” value in assay [3] turned out to be 0.15.
The matching figures for `CCN1Cc2nc3c(-c4ccccc4C#N)cccc3c(N)c2C1=O` [Example 25, 2-(9-Amino-2-ethyl-1-oxo-2,3-dihydro-1H-pyrrolo[3,4-b]quinolin-5-yl)-benzonitrile]: 14.1 nM, 0.17 and −0.11.
Regarding `CCN1Cc2nc3c(-c4ccc(OC)nc4OC)c(F)ccc3c(N)c2C1=O` [Example 26, 9-Amino-5-(2,6-dimethoxypyridin-3-yl)-2-ethyl-6-fluoro-2,3-dihydropyrrolo[3,4-b]quinolin-1-one], the Ki in assay [1] came out at 8.96 nM. For the same molecule, in assay [2], the “Relative Potentiation for GABAA2” value is reported as 0.18. For the same molecule, in assay [3], the “Relative Potentiation for GABAA1” value is on record as 0.062.
Turning to `CCN1Cc2nc3c(-c4ccc(OC)c(OC)c4)cccc3c(N)c2C1=O` [Example 29, 9-Amino-2-ethyl-5-(3,4-dimethoxyphenyl)-2,3-dihydropyrrolo[3,4-b]quinolin-1-one], the Ki in assay [1] was found to be 21.4 nM. In addition, the “Relative Potentiation for GABAA2” value in assay [2] is 0.19. For the same molecule, the “Relative Potentiation for GABAA1” value in assay [3] came to 0.07.
The matching figures for `CCN1Cc2nc3c(-c4ccc(F)cc4OC)cccc3c(N)c2C1=O` [Example 32, 9-Amino-2-ethyl-5-(4-fluoro-2-methoxyphenyl)-2,3-dihydropyrrolo[3,4-b]quinolin-1-one]: 22.1 nM, 0.2 and −0.05.
Consider `CCN1Cc2nc3c(-c4cccc(OC)c4F)cccc3c(N)c2C1=O` [Example 33, 9-Amino-2-ethyl-5-(2-fluoro-3-methoxyphenyl)-2,3-dihydropyrrolo[3,4-b]quinolin-1-one], for which the Ki in assay [1] came out at 9.93 nM. Also, the “Relative Potentiation for GABAA2” value in assay [2] is 0.21. In addition, the “Relative Potentiation for GABAA1” value in assay [3] is on record as 0.01.
Molecule `COc1cccc(F)c1-c1c(F)ccc2c(N)c3c(nc12)CN(C1CC1)C3=O` [Example 35, 9-Amino-2-cyclopropyl-6-fluoro-5-(2-fluoro-6-methoxyphenyl)-2,3-dihydropyrrolo[3,4-b]quinolin-1-one] yielded a Ki in assay [1] of 2.59 nM. The “Relative Potentiation for GABAA2” value in assay [2] was 0.24. In addition, the “Relative Potentiation for GABAA1” value in assay [3] was −0.075.
Consider `COc1ncccc1-c1c(F)ccc2c(N)c3c(nc12)CN(C1CC1)C3=O` [Example 38, 9-Amino-2-cyclopropyl-6-fluoro-5-(2-methoxypyridin-3-yl)-2,3-dihydropyrrolo[3,4-b]quinolin-1-one], for which the affinity in assay [1] corresponds to a Ki of 2.59 nM. Moreover, the “Relative Potentiation for GABAA2” value in assay [2] is given as 0.26. Further, in assay [3], the “Relative Potentiation for GABAA1” value came to 0.11.
Take `COc1ccc(OC)c(CN2Cc3nc4c(-c5cnccc5OC)cccc4c(N)c3C2=O)c1` [Example 39, 9-Amino-2-(2,5-dimethoxybenzyl)-5-(4-methoxypyridin-3-yl)-2,3-dihydropyrrolo[3,4-b]quinolin-1-one]: the Ki in assay [1] is 5.11 nM. Besides, the “Relative Potentiation for GABAA2” value in assay [2] is reported as 0.26. The “Relative Potentiation for GABAA1” value in assay [3] amounted to 0.18.
The matching figures for `COc1ccncc1-c1c(F)ccc2c(N)c3c(nc12)CN(C1CC1)C3=O` [Example 41, 9-Amino-2-cyclopropyl-6-fluoro-5-(4-methoxypyridin-3-yl)-2,3-dihydropyrrolo[3,4-b]quinolin-1-one]: 2.35 nM, 0.28 and 0.13.
For `COc1ncc(-c2c(F)ccc3c(N)c4c(nc23)CN(C2CC2)C4=O)c(OC)n1` [Example 44, 9-Amino-2-cyclopropyl-5-(2,4-dimethoxypyrimidin-5-yl)-6-fluoro-2,3-dihydropyrrolo[3,4-b]quinolin-1-one], the Ki in assay [1] worked out at 6.64 nM. Also, the “Relative Potentiation for GABAA2” value in assay [2] is recorded as 0.35. Moreover, in assay [3], the “Relative Potentiation for GABAA1” value was 0.13.
Take `CCN1Cc2nc3c(-c4ccccc4OC)c(F)ccc3c(N)c2C1=O` [Example 45, 9-Amino-2-ethyl-6-fluoro-5-(2-methoxyphenyl)-2,3-dihydropyrrolo[3,4-b]quinolin-1-one]: the Ki in assay [1] was 13.2 nM. In addition, the “Relative Potentiation for GABAA2” value in assay [2] is given as 0.26. Also, the “Relative Potentiation for GABAA1” value in assay [3] was −0.11.
The matching figures for `CCN1Cc2nc3c(-c4cc(F)ccc4OC)c(F)ccc3c(N)c2C1=O` [Example 46, 9-Amino-2-ethyl-6-fluoro-5-(5-fluoro-2-methoxyphenyl)-2,3-dihydropyrrolo[3,4-b]quinolin-1-one]: 17.3 nM, 0.3 and −0.008.
In turn, `CCN1Cc2nc3c(-c4ccc(OC)c(OC)c4)c(F)ccc3c(N)c2C1=O` [Example 47, 9-Amino-5-(3,4-dimethoxyphenyl)-2-ethyl-6-fluoro-2,3-dihydropyrrolo[3,4-b]quinolin-1-one] registered a Ki in assay [1] of 4.52 nM. Besides, in assay [2], the “Relative Potentiation for GABAA2” value was 0.27. In addition, the “Relative Potentiation for GABAA1” value in assay [3] is given as 0.068.
